Laboratory results: US20220267271A1, “WNT ACTIVATORS AND METHODS OF USE” (MAYO FOUNDATION FOR MEDICAL EDUCATION AND RESEARCH, priority 2019, published 2022)

Assays:
TCF/LEF reporter = details: with Wnt3A; cited from earlier work
[1] = Pharmacokinetic study in Balb/c mice following intravenous administration; type: in vivo; details: male Balb/c mice, IV 2 mg/kg
Description: (A) Plasma and brain concentration—time curves of 1015 in male Balb/c mice following intravenous (2 mg/kg) administration (n=4 at each time point). (B) in vivo pharmacokinetic parameters of 1015. B/P: brain/plasma concentration ratio (30 min after IV injection with 2 mg/kg) calculated using 1 g/mL brain density.
Pharmacokinetic study of compound 1015 in Balb/c mice following intravenous administration: Male Balb/c mice (11-12 weeks old, body weight 21.9 to 31.3 g and average body weight across all groups 25.6 g, SD=2.19 g) were used in this study. The animals were randomly assigned to the treatment groups before the pharmacokinetic study; all animals were fasted for 4 h before intravenous injection of 1015 at 2 mg/kg dissolved in Kolliphor HS-physiological saline (20%:80%). Eight time points (5, 15, 30, 60, 120, 240, 480 and 1440 min) were set for this pharmacokinetic study. Each of the time point treatment group included 4 animals. There was also a control group of 2 animals. Mice were injected IV with 2,2,2-tribromoethanol at the dose of 150 mg/kg prior to drawing the blood. Blood collection was performed from the orbital sinus in microtainers containing K2EDTA. Animals were sacrificed by cervical dislocation after blood samples collection. Brain and plasma samples were immediately processed, flash-frozen and stored at −70° C. until subsequent analysis.
Plasma samples (50 μl) were mixed with 200 μl of IS solution. After mixing by pipetting and centrifuging for 4 min at 6000 rpm, 2 μl of each supernatant was injected into LC-MS/MS system. Solution of compound IS-22665-01 (200 ng/ml in acetonitrile-methanol mixture, 1:1, v/v) was used as internal standard (IS) for quantification of 1015 in plasma samples. Brain samples (100 mg±1 mg) were dispersed in 500 μl of IS200(80) using zirconium oxide beads (150 mg±5 mg) in The Bullet Blender® homogenizer for 60 seconds at speed 8. […] Solution of compound IS-22665-01 (200 ng/ml in water-acetonitrile-methanol mixture, 2:4:4, v/v/v) was used as internal standard (IS200(80)) for quantification of 1015 in brain samples. […]

GSK3β = GSK3β phosphorylation (Ser9) in N2a cells by Western blotting; type: cell-based; details: 0.8 μM and 1.6 μM, 24 h
Description: (§1) N2a cells were treated with 1011 at the indicated concentrations for 24 h. (A) the levels of β-catenin, GSK3β and GSK3β phosphorylation (Ser9) were examined by Western blotting. (B) the intensity of the GSK3β phosphorylation bands were quantified and normalized to the corresponding signal for total GSK3β. The results represented in the histograms are shown as the mean±SD and are the average of 3 independent experiments. *P<0.05, **P<0.01 versus corresponding control value.
(§2) Western blotting: Cells in 6-well plates were lysed in 0.5 ml of lysis buffer (phosphate-buffered saline containing 1% Triton X-100, 1× Proteinase inhibitor cocktail Complete, and 1 mM PMSF) at 4° C. for 15 min. Equal quantities of protein were subjected to SDS-PAGE under reducing conditions. Following transfer to immobilon-P transfer membrane, successive incubations with a primary antibody, and a horseradish peroxidase-conjugated secondary antibody or IRDye® 680RD goat anti-rabbit/mouse secondary antibodies were carried out for 60-120 min at room temperature. The immunoreactive proteins were then detected using the ECL system or the Odyssey infrared imaging system (LI-COR). Films showing immunoreactive bands were scanned by Hp Scanjet 5590.

tau = assay: Tau phosphorylation in N2a cells by Western blotting; type: cell-based; details: 0.8 and 1.6 μM, 24 h
Description: as §1, with “tau” for “GSK3β”, “phosphorylation” for “phosphorylation (Ser9)”, “tau.” for “GSK3β.”
as §2

CC(=O)Nc1ccc(C(=O)Nc2ccccc2N)cc1 [CI-994, 4-(acetylamino)-N-(2-aminophenyl)benzamide, reference compound]
activity of the TCF/LEF reporter (TCF/LEF reporter): able to synergize with Wnt3A to activate

Nc1ccccc1NC(=O)c1ccc(C(=O)NCC2CCN2C2CCCC2)cn1 (stereo not drawn) [Compound 1015]
concentration in brain versus plasma [1]: much higher concentration in brain than in plasma | half-life (t1/2), brain versus plasma [1]: much longer in brain than in plasma | Kp at 30 min ([1]; mouse, brain/plasma, 30 min after injection, read-out: brain concentration/plasma concentration ratio (B/P)): 5.6

CC1CCCC(C)N1CCNC(=O)c1ccc(C(=O)Nc2ccccc2N)nc1 (stereo not drawn) [Compound 1011]
GSK3β phosphorylation at Ser9 (GSK3β): significantly enhanced | tau phosphorylation (tau): suppressed
